Read-outs that look alike come from different tables or passages of the source. Numbered stars: 1 amine (or outer) side, 2 acyl side, 3 side chain; on linkers, the order of the positions; unused ones are H or OH. Bridge positions count the residues as written; N and C are the ends. Square brackets hold non-standard residues; d marks the D form. Peptide text beside a SMILES is read from it. Gly(N-CH2CH2-imidazol-4-yl) = O=C(O)CNCCc1c[nH]cn1; TBMB = c1c(C[*:1])cc(C[*:3])cc1C[*:2]; His(π-Me) = Cn1cncc1C[C@H](N)C(=O)O; 3Pal = N[C@@H](Cc1cccnc1)C(=O)O; 2Thi = N[C@@H](Cc1cccs1)C(=O)O; Agb = N=C(N)NCC[C@H](N)C(=O)O; Phg = N[C@H](C(=O)O)c1ccccc1; Dap = NC[C@H](N)C(=O)O

In this assay the target is T1, human plasma Kallikrein (Homo sapiens, UniProt P03952).
T1 construct: purchased Stratech, UK
T1 sequence (P03952 20-638): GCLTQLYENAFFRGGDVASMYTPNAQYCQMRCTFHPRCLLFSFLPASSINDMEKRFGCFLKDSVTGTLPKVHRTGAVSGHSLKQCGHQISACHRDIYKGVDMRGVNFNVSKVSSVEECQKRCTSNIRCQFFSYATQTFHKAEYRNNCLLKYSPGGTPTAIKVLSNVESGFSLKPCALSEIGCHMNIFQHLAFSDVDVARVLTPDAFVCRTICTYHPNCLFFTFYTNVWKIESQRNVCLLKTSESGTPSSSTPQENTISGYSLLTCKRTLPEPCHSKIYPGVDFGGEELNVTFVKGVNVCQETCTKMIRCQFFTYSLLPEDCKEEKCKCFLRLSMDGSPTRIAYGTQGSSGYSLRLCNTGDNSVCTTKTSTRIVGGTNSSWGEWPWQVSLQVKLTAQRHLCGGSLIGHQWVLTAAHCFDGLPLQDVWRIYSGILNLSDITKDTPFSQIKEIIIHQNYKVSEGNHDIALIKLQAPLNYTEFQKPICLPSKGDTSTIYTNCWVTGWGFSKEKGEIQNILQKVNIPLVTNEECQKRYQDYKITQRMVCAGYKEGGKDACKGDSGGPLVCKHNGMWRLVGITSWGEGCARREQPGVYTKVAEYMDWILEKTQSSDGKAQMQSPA
Description: Functional enzyme inhibition assay with fluorogenic substrate Z-PheArg-AMC, human plasma Kallikrein. It is filed as biochemical. On the procedure:
Functional enzyme assays were conducted in 10 mM Tris HCl, 150 mM NaCl, 10 mM MgCl2, 1 mM CaCl2) and 1 mg/mL BSA (all Sigma UK) pH7.4 at 25° C. in solid black 96 well plates. Briefly 26.5 pM human plasma Kallikrein (purchased from Stratech, UK) or 500 pM rat plasma Kallikrein (expressed and purified in house) were incubated in the absence or presence of increasing concentrations of test peptide for 15 minutes before addition of the fluorogenic substrate Z-PheArg-AMC (Enzo Lifesciences UK) to a final assay concentration of 100 μM in 4% DMSO. Release of AMC was measured using a Pherastar FS (BMG Labtech), excitation 360 nm, emission 460 nm. The rate of the linear phase of the reaction, typically 5 to 45 minutes, was calculated in MARS data analysis software (BMG labtech). The rate was then used to calculate the IC50 and Ki in Prism (GraphPad). A four parameter inhibition non-linear regression equation was used to calculate the IC50.
Peptides were dissolved as the TFA-salts in their powder form, and stock solutions were usually prepared in water. All solutions were centrifuged and filtered ([…] syringe filters) prior absorption measurement at 280 nm. […] For peptides containing non-natural amino acids with suspected chromophoric properties (i.e. NorHar, 4PhenylPro, 3Pal, 4Pal, Tic, 4GuanPhe, 4,4-BPAI, 3,3-DPA, 1NAI, 2NAI, 4BenzylPro, Ind) concentrations were determined by weighing the powder and dissolving the peptide in a defined quantity of water.

[1] abbreviates: Table 24b, residue 7 modifications, read-out: Ki.
[2] abbreviates: Table 24b, ratio of Ki to wild type.
The mark [3] stands for this setting: Table 24c, residue 8 modifications, read-out: Ki.
[4] abbreviates: Table 24c, ratio of Ki to wild type.

As to `CC(=O)N[C@H]1CSCc2cc3cc(c2)CSC[C@H](NC(=O)[C@H](CCCNC(=N)N)NC(=O)[C@H](Cc2ccc(O)cc2)NC(=O)[C@@H]2CCCN2C(=O)[C@H](Cc2ccccc2)NC(=O)[C@H](CO)NC1=O)C(=O)N[C@@H](CC(C)C)C(=O)N[C@@H](Cc1c[nH]cn1)C(=O)N[C@@H](CCC(N)=O)C(=O)N[C@H](C)C(=O)N[C@@H](CC(C)C)C(=O)N[C@H](C(N)=O)CSC3` [Ac-(06-34-18) Phe2 Tyr4 D-Ala9] (Ac-CSFPYRCLHQ[dA]LC-NH2; linker 1-7-13 via TBMB), the Ki (usually a dissociation constant, usually derived from enzyme kinetics or from competition with a known ligand) (Table 3c, D-Alanine scan in Loop2, read-out: Ki) is 19.9 nM. Besides, where the note is “Table 3c, ratio of Ki to wild type”, the “F (Kivar/KiWT)” value is given as 47.
For `CC(=O)N[C@H]1CSCc2cc3cc(c2)CSC[C@H](NC(=O)[C@H](CCCNC(=N)N)NC(=O)[C@H](Cc2ccc(O)cc2)NC(=O)[C@@H]2CCCN2C(=O)[C@H](Cc2ccccc2)NC(=O)[C@H](CO)NC1=O)C(=O)N[C@@H](CC(C)C)C(=O)N[C@@H](Cc1cccs1)C(=O)N[C@@H](CCC(N)=O)C(=O)N[C@@H](CC(=O)O)C(=O)N[C@@H](CC(C)C)C(=O)N[C@H](C(N)=O)CSC3` [Ac-(06-34-18) Phe2 Tyr4 Thi7] (Ac-CSFPYRCL[2Thi]QDLC-NH2; linker 1-7-13 via TBMB), the Ki under setting [1] stood at 34 nM. In addition, the “F (Kivar/KiWT)” value under setting [2] was 80.
On to `CC(=O)N[C@H]1CSCc2cc3cc(c2)CSC[C@H](NC(=O)[C@H](CCCNC(=N)N)NC(=O)[C@H](Cc2ccc(O)cc2)NC(=O)[C@@H]2CCCN2C(=O)[C@H](Cc2ccccc2)NC(=O)[C@H](CO)NC1=O)C(=O)N[C@@H](CC(C)C)C(=O)N[C@@H](Cc1c[nH]cn1)C(=O)N[C@@H](CN)C(=O)N[C@@H](CC(=O)O)C(=O)N[C@@H](CC(C)C)C(=O)N[C@H](C(N)=O)CSC3` [Ac-(06-34-18) Phe2 Tyr4 Dap8] (Ac-CSFPYRCLH[Dap]DLC-NH2; linker 1-7-13 via TBMB), for which the Ki under setting [3] was 5.49 nM. Also, under setting [4], the “F (Kivar/KiWT)” value is on record as 13.
In the case of `CC(=O)N[C@H]1CSCc2cc3cc(c2)CSC[C@H](NC(=O)[C@H](CCCNC(=N)N)NC(=O)[C@H](Cc2ccc(O)cc2)NC(=O)[C@@H]2CCCN2C(=O)[C@H](Cc2ccccc2)NC(=O)[C@H](CO)NC1=O)C(=O)N[C@@H](CC(C)C)C(=O)N[C@@H](Cc1cccnc1)C(=O)N[C@@H](CCC(N)=O)C(=O)N[C@@H](CC(=O)O)C(=O)N[C@@H](CC(C)C)C(=O)N[C@H](C(N)=O)CSC3` [Ac-(06-34-18) Phe2 Tyr4 3Pal7] (Ac-CSFPYRCL[3Pal]QDLC-NH2; linker 1-7-13 via TBMB), the Ki under setting [1] came to 130 nM. Moreover, the “F (Kivar/KiWT)” value under setting [2] came out at 308.
In the case of `CC(=O)N[C@H]1CSCc2cc3cc(c2)CSC[C@H](NC(=O)[C@H](CCCNC(=N)N)NC(=O)[C@H](Cc2ccc(O)cc2)NC(=O)[C@@H]2CCCN2C(=O)[C@H](Cc2ccccc2)NC(=O)[C@H](CO)NC1=O)C(=O)N[C@@H](CC(C)C)C(=O)N[C@@H](Cc1c[nH]cn1)C(=O)N[C@@H](CC(=O)O)C(=O)N[C@@H](CC(=O)O)C(=O)N[C@@H](CC(C)C)C(=O)N[C@H](C(N)=O)CSC3` [Ac-(06-34-18) Phe2 Tyr4 Asp8] (Ac-CSFPYRCLHDDLC-NH2; linker 1-7-13 via TBMB), the Ki under setting [3] turned out to be 3.83 nM. Further, the “F (Kivar/KiWT)” value under setting [4] was 9.
As to `CC(=O)N[C@H]1CSCc2cc3cc(c2)CSC[C@H](NC(=O)[C@H](CCCNC(=N)N)NC(=O)[C@H](Cc2ccc(O)cc2)NC(=O)[C@@H]2CCCN2C(=O)[C@H](Cc2ccccc2)NC(=O)[C@H](CO)NC1=O)C(=O)N[C@@H](CC(C)C)C(=O)N[C@@H]([C@@H](C)O)C(=O)N[C@@H]([C@@H](C)O)C(=O)N[C@@H](CCC(=O)O)C(=O)N[C@@H](CC(C)C)C(=O)N[C@H](C(N)=O)CSC3` [Ac-(06-34-18) Phe2 Tyr4 Thr7 Thr8 Glu9] (Ac-CSFPYRCLTTELC-NH2; linker 1-7-13 via TBMB), the “F (Kivar/KiWT)” value under setting [4] is on record as 193.
With `CC(C)C[C@@H]1NC(=O)[C@H](CC(=O)O)NC(=O)[C@H](CCC(N)=O)NC(=O)[C@H](Cc2c[nH]cn2)NC(=O)[C@H](C)NC(=O)[C@@H]2CSCc3cc(cc(c3)CSC[C@@H](C(=O)N[C@@H](C)C(N)=O)NC1=O)CSC[C@H](NC(=O)[C@H](C)N)C(=O)N[C@@H](C)C(=O)N[C@@H](Cc1c[nH]c3ccccc13)C(=O)N1CCC[C@H]1C(=O)N[C@@H](C)C(=O)N[C@@H](CCCNC(=N)N)C(=O)N2` [06-34-03-Ala1,6] (H-ACAWPARCAHQDLCA-NH2; linker 2-8-14 via TBMB), the “potency / binding to kallikrein (in words)” value is recorded as “retained full potency compared to the parent”.
With `CC(=O)N[C@H]1CSCc2cc3cc(c2)CSC[C@H](NC(=O)[C@H](CCCNC(=N)N)NC(=O)[C@H](Cc2ccc(O)cc2)NC(=O)[C@@H]2CCCN2C(=O)[C@H](Cc2ccccc2)NC(=O)[C@H](CO)NC1=O)C(=O)N[C@@H](CC(C)C)C(=O)N(CCc1c[nH]cn1)CC(=O)N[C@@H](CCC(N)=O)C(=O)N[C@@H](CC(=O)O)C(=O)N[C@@H](CC(C)C)C(=O)N[C@H](C(N)=O)CSC3` [Ac-(06-34-18) Phe2 Tyr4 N-His7] (Ac-CSFPYRCL[Gly(N-CH2CH2-imidazol-4-yl)]QDLC-NH2; linker 1-7-13 via TBMB), the “F (Kivar/KiWT)” value (Table 25b, fold change of Ki of variant compared to WT) turned out to be 519. For the same compound, the Ki (Table 25b, peptide backbone modifications in Loop2, human plasma kallikrein, read-out: Ki) was 218 nM.
Consider `CC(=O)N[C@H]1CSCc2cc3cc(c2)CSC[C@H](NC(=O)[C@H](CCCNC(=N)N)NC(=O)[C@H](C)NC(=O)[C@@H]2CCCN2C(=O)[C@H](Cc2c[nH]c4ccccc24)NC(=O)[C@H](CO)NC1=O)C(=O)N[C@@H](c1ccccc1)C(=O)N[C@@H](Cc1c[nH]cn1)C(=O)N[C@@H](CCC(N)=O)C(=O)N[C@@H](CC(=O)O)C(=O)N[C@@H](CC(C)C)C(=O)N[C@H](C(N)=O)CSC3` [Ac-(06-34-18) Phg6] (Ac-CSWPARC[Phg]HQDLC-NH2; linker 1-7-13 via TBMB), for which the Ki (Table 24a, residue 6 modification in the context of Ac-(06-34-18), read-out: Ki (nM) Ac-(06-34-18)) is 0.18 nM.
With `CC(=O)N[C@H]1CSCc2cc3cc(c2)CSC[C@H](NC(=O)[C@H](CCCNC(=N)N)NC(=O)[C@H](Cc2ccc(O)cc2)NC(=O)[C@@H]2CCCN2C(=O)[C@H](Cc2ccccc2)NC(=O)[C@H](CO)NC1=O)C(=O)N[C@@H](CC(C)C)C(=O)N[C@@H](Cc1cncn1C)C(=O)N[C@@H](CCC(N)=O)C(=O)N[C@@H](CC(=O)O)C(=O)N[C@@H](CC(C)C)C(=O)N[C@H](C(N)=O)CSC3` [Ac-(06-34-18) Phe2 Tyr4 His3Me7] (Ac-CSFPYRCL[His(π-Me)]QDLC-NH2; linker 1-7-13 via TBMB), the Ki under setting [1] was determined as 292 nM. Further, under setting [2], the “F (Kivar/KiWT)” value was 696.
For the compound `CC(=O)N[C@H]1CSCc2cc3cc(c2)CSC[C@H](NC(=O)[C@H](CCCNC(=N)N)NC(=O)[C@H](Cc2ccc(O)cc2)NC(=O)[C@@H]2CCCN2C(=O)[C@H](Cc2ccccc2)NC(=O)[C@H](CO)NC1=O)C(=O)N[C@@H](Cc1ccccc1)C(=O)N[C@@H](Cc1c[nH]cn1)C(=O)N[C@@H](CCC(N)=O)C(=O)N[C@@H](CC(=O)O)C(=O)N[C@@H](CC(C)C)C(=O)N[C@H](C(N)=O)CSC3` [Ac-(06-34-18) Phe2 Tyr4 Phe6] (Ac-CSFPYRCFHQDLC-NH2; linker 1-7-13 via TBMB), under “Table 24a, residue 6 modification in the context of Ac-(06-34-18) Phe2 Tyr4, read-out: Ki (nM) Ac-(06-34-18) Phe2 Tyr4”, the inhibitory constant (Ki) was 14.9 nM.
Take `CC(=O)N[C@H]1CSCc2cc3cc(c2)CSC[C@H](NC(=O)[C@H](CCCNC(=N)N)NC(=O)[C@H](Cc2ccc(O)cc2)NC(=O)[C@@H]2CCCN2C(=O)[C@H](Cc2ccccc2)NC(=O)[C@H](CO)NC1=O)C(=O)N[C@@H](CC(C)C)C(=O)N[C@@H](CCNC(=N)N)C(=O)N[C@@H](CCC(N)=O)C(=O)N[C@@H](CC(=O)O)C(=O)N[C@@H](CC(C)C)C(=O)N[C@H](C(N)=O)CSC3` [Ac-(06-34-18) Phe2 Tyr4 Agb7] (Ac-CSFPYRCL[Agb]QDLC-NH2; linker 1-7-13 via TBMB): the Ki under setting [1] was 2250 nM. Besides, the “F (Kivar/KiWT)” value under setting [2] was determined as 5365.
Consider `CC(=O)N[C@H]1CSCc2cc3cc(c2)CSC[C@H](NC(=O)[C@H](CCCNC(=N)N(C)C)NC(=O)[C@H](C)NC(=O)[C@@H]2CCCN2C(=O)[C@H](Cc2c[nH]c4ccccc24)NC(=O)[C@H](CO)NC1=O)C(=O)N[C@@H](CC(C)C)C(=O)N[C@@H](Cc1c[nH]cn1)C(=O)N[C@@H](CCC(N)=O)C(=O)N[C@@H](CC(=O)O)C(=O)N[C@@H](CC(C)C)C(=O)N[C@H](C(N)=O)CSC3` [Ac-(06-34-18) NDMA5], for which the Ki (Table 11, read-out: Ki (nM) (human kallikrein)) turned out to be 510 nM.
Consider `CC(=O)N[C@H]1CSCc2cc3cc(c2)CSC[C@H](NC(=O)[C@H](CCCNC(=N)N)NC(=O)[C@H](Cc2ccc(O)cc2)NC(=O)[C@@H]2CCCN2C(=O)[C@H](Cc2ccccc2)NC(=O)[C@H](CO)NC1=O)C(=O)N[C@@H](CC(C)C)C(=O)N[C@@H](Cc1c[nH]cn1)C(=O)N[C@@H](CCC(=O)O)C(=O)N[C@@H](CC(=O)O)C(=O)N[C@@H](CC(C)C)C(=O)N[C@H](C(N)=O)CSC3` [Ac-(06-34-18) Phe2 Tyr4 Glu8] (Ac-CSFPYRCLHEDLC-NH2; linker 1-7-13 via TBMB), for which the Ki under setting [3] is 2.53 nM. In addition, the “F (Kivar/KiWT)” value under setting [4] came out at 6.
